# Measurements as given in patent US10851079B2, “Piperidine derivative” (OTSUKA PHARMACEUTICAL CO., LTD., priority 2016, dated 2020).
# Tested on: Mycobacteria tuberculosis (M. tuberculosis H37Rv and M. tuberculosis Kurono)
# Assay: Antibacterial test (agar plate dilution method), minimum inhibitory concentration
# Type: cell-based
# Conditions: Mycobacterium tuberculosis, 7H11 agar medium, about 10^6 CFU/mL inoculum, incubation at 37° C., strains H37Rv and Kurono, read-out: minimum inhibitory concentration against Mycobacteria tuberculosis
row,SMILES,MIC [µg/mL]
1,O=c1[nH]c2c(Cl)ccc(OC[C@]3(O)CCN(c4c(F)cc(Cl)cc4F)C[C@H]3O)c2s1 [Example 122],≤ 3.13
2,CC(C)(C)N1Cc2c(OC[C@]3(O)CCN(c4c(F)cc(Cl)cc4F)C[C@H]3O)cccc2C1=O [Example 9],≤ 3.13
3,O=c1[nH]c2c(F)ccc(OC[C@]3(O)CCN(c4ccc(Br)cc4F)C[C@H]3O)c2s1 [Example 140],≤ 3.13
4,O=C1Cc2c(OC[C@]3(O)CCN(c4c(F)cc(Cl)cc4F)C[C@H]3O)ccc(Cl)c2N1 [Example 95],≤ 3.13
5,"OCc1cc(Cl)ccc1OC[C@]1(O)CCN(c2c(F)cc(Cl)cc2F)C[C@H]1O [Example 98, (3R,4R)-1-(4-chloro-2,6-difluorophenyl)-4-[[4-chloro-2-(hydroxymethyl)phenoxy]methyl]piperidine-3,4-diol]",≤ 3.13
6,"OC1(COc2cccc3cnccc23)CCN(c2ccc(Cl)cc2F)CC1 [Example 1, 1-(4-chloro-2-fluorophenyl)-4-(isoquinolin-5-yloxymethyl)piperidin-4-ol]",≤ 3.13
7,"O=C1CCc2c(OC[C@]3(O)CCN(c4c(F)cc(Cl)cc4F)C[C@H]3O)ccc(Cl)c21 [Example 90, 7-chloro-4-[[(3R,4R)-1-(4-chloro-2,6-difluorophenyl)-3,4-dihydroxypiperidin-4-yl]methoxy]-2,3-dihydroinden-1-one]",≤ 3.13
8,CC(=O)Nc1cc(F)ccc1OC[C@]1(O)CCN(c2c(F)cc(Cl)cc2F)C[C@H]1O [Example 62],≤ 3.13
9,"O=c1[nH]c2c(F)ccc(OCC3(O)CCN(c4c(F)cc(Cl)cc4F)CC3)c2s1 [Example 147, 7-[[1-(4-chloro-2,6-difluorophenyl)-4-hydroxypiperidin-4-yl]methoxy]-4-fluoro-3H-1,3-benzothiazol-2-one]",≤ 3.13
10,O=c1cnc2cccc(OC[C@]3(O)CCN(c4ccc(Cl)cc4F)C[C@H]3O)c2[nH]1 [Example 51],≤ 3.13
11,Cc1noc2cccc(OC[C@]3(O)CCN(c4c(F)cc(Cl)cc4F)C[C@H]3O)c12 [Example 32],≤ 3.13
12,O=C1COc2c(OC[C@]3(O)CCN(c4c(F)cc(Cl)cc4F)C[C@H]3O)ccc(Cl)c2N1 [Example 111],≤ 3.13
13,O=C1COc2c(OCC3(O)CCN(c4c(F)cc(Cl)cc4F)CC3)ccc(Cl)c2N1 [Example 80],≤ 3.13
14,O=C1Nc2cccc(OC[C@]3(O)CCN(c4ccc(Cl)cc4F)C[C@H]3O)c2CS1 [Example 68],≤ 3.13
15,O=C1CCCc2c(OCC3(O)CCN(c4c(F)cc(Cl)cc4F)CC3)ccc(Cl)c2N1 [Example 79],≤ 3.13
16,O=C1Cc2c(OC[C@]3(O)CCN(c4ccc(Br)cc4F)C[C@H]3O)ccc(Cl)c2N1 [Example 120],≤ 3.13
17,O=C1CSCc2c(cccc2OC[C@]2(O)CCN(c3c(F)cc(Cl)cc3F)C[C@H]2O)N1 [Example 66],≤ 3.13
18,O[C@@H]1CN(c2c(F)cc(Cl)cc2F)CC[C@@]1(O)COc1cccc2[nH]ncc12 [Example 28],≤ 3.13
19,CN1Cc2c(cccc2OC[C@]2(O)CCN(c3c(F)cc(Cl)cc3F)C[C@H]2O)NC1=O [Example 41],≤ 3.13
20,O=C1COCc2c(cccc2OC[C@]2(O)CCN(c3c(F)cc(Cl)cc3F)C[C@H]2O)N1 [Example 65],≤ 3.13
21,O[C@@H]1CN(c2c(F)cc(Cl)cc2F)CC[C@@]1(O)COc1ccc(F)c2nc(Cl)sc12 [Example 135],≤ 3.13
22,"O[C@@H]1CN(c2c(F)cc(Cl)cc2F)CC[C@@]1(O)COc1ccc(Cl)c2cccnc12 [Example 6, (3R,4R)-1-(4-chloro-2,6-difluorophenyl)-4-[(5-chloroquinolin-8-yl)oxymethyl]piperidine-3,4-diol]",≤ 3.13
23,COC(=O)c1cc(Cl)ccc1OC[C@]1(O)CCN(c2c(F)cc(Cl)cc2F)C[C@H]1O [Example 92],≤ 3.13

row,SMILES,MIC [µg/mL]
1,"NC(=O)Cc1cc(F)ccc1OC[C@]1(O)CCN(c2c(F)cc(Cl)cc2F)C[C@H]1O [Example 117, 2-[5-fluoro-2-[[(3R,4R)-1-(4-chloro-2,6-difluorophenyl)-3,4-dihydroxypiperidin-4-yl]methoxy]phenyl]acetamide]",≤ 3.13
2,O=C1Nc2c(Cl)ccc(OC[C@]3(O)CCN(c4ccc(Cl)cc4F)C[C@H]3O)c2CO1 [Example 133],≤ 3.13
3,Cc1c(OC[C@]2(O)CCN(c3c(F)cc(Cl)cc3F)C[C@H]2O)ccc(Cl)c1NC=O [Example 105],≤ 3.13
4,O[C@@H]1CN(c2c(F)cc(Cl)cc2F)CC[C@@]1(O)COc1ccc(Br)c2ccoc12 [Example 23],≤ 3.13
5,O[C@@H]1CN(c2c(F)cc(Cl)cc2F)CC[C@@]1(O)COc1cccc2[nH]cnc12 [Example 34],≤ 3.13
6,CNC(=O)c1cc(Cl)ccc1OC[C@]1(O)CCN(c2c(F)cc(Cl)cc2F)C[C@H]1O [Example 101],≤ 3.13
7,"OC1CCc2c(OC[C@]3(O)CCN(c4c(F)cc(Cl)cc4F)C[C@H]3O)cccc21 (stereo partly drawn) [Example 24, (3R,4R)-1-(4-chloro-2,6-difluorophenyl)-4-[(1-hydroxy-2,3-dihydro-1H-inden-4-yl)oxymethyl]piperidine-3,4-diol]",≤ 3.13
8,"Nc1nc2c(Cl)ccc(OC[C@]3(O)CCN(c4c(F)cc(Cl)cc4F)C[C@H]3O)c2s1 [Example 127, (3R,4R)-4-[(2-amino-4-chloro-1,3-benzothiazol-7-yl)oxymethyl]-1-(4-chloro-2,6-difluorophenyl)piperidine-3,4-diol]",≤ 3.13
9,O[C@@H]1CN(c2ccc(Cl)cc2F)CC[C@@]1(O)COc1ccc(Cl)c2[nH]ncc12 [Example 47],≤ 3.13
10,Cn1c(=O)c(=O)[nH]c2c(OC[C@]3(O)CCN(c4c(F)cc(Cl)cc4F)C[C@H]3O)ccc(F)c21 [Example 146],≤ 3.13
11,O=C1CCCc2c(OC[C@]3(O)CCN(c4c(F)cc(Cl)cc4F)C[C@H]3O)ccc(Cl)c2N1 [Example 84],≤ 3.13
12,O=C1CCc2c(OC[C@]3(O)CCN(c4c(F)cc(Cl)cc4F)C[C@H]3O)cccc21 [Example 17],≤ 3.13
13,O=C1CCc2c(OC[C@]3(O)CCN(c4ccc(Br)cc4F)C[C@H]3O)ccnc2N1 [Example 71],≤ 3.13
14,O=C1Nc2cccc(OC[C@]3(O)CCN(c4c(F)cc(Cl)cc4F)C[C@H]3O)c2CO1 [Example 141],≤ 3.13
15,"Cn1c(=O)cnc2c(OC[C@]3(O)CCN(c4c(F)cc(Cl)cc4F)C[C@H]3O)cccc21 [Example 53, 1-methyl-5-[[(3R,4R)-1-(4-chloro-2,6-difluorophenyl)-3,4-dihydroxypiperidin-4-yl]methoxy]quinoxalin-2-one]",≤ 3.13
16,O=C1NCc2c(OC[C@]3(O)CCN(c4ccc(Br)cc4F)C[C@H]3O)ccc(F)c2N1 [Example 131],≤ 3.13
17,Cn1c(=O)[nH]c2cccc(OC[C@]3(O)CCN(c4c(F)cc(Cl)cc4F)C[C@H]3O)c21 [Example 11],≤ 3.13
18,"Cl.O[C@@H]1CN(c2c(F)cc(Cl)cc2F)CC[C@@]1(O)COc1ccc(F)c2c1CCCN2 [Example 44, (3R,4R)-1-(4-chloro-2,6-difluorophenyl)-4-[(8-fluoro-1,2,3,4-tetrahydroquinolin-5-yl)oxymethyl]piperidine-3,4-diol hydrochloride]",≤ 3.13
19,O[C@@H]1CN(c2c(F)cc(Cl)cc2F)CC[C@@]1(O)COc1ccc(Cl)c2[nH]c(=S)ccc12 [Example 108],≤ 3.13
20,O=c1cnc2c(OC[C@]3(O)CCN(c4ccc(Br)cc4F)C[C@H]3O)cccc2[nH]1 [Example 50],≤ 3.13
21,"O=C1Cc2c(OCC3(O)CCN(c4c(F)cc(Cl)cc4F)CC3)ccc(F)c2N1 [Example 145, 4-[[1-(4-chloro-2,6-difluorophenyl)-4-hydroxypiperidin-4-yl]methoxy]-7-fluoro-1,3-dihydroindol-2-one]",≤ 3.13
22,O=C1CSc2c(cccc2OC[C@]2(O)CCN(c3ccc(Cl)cc3F)C[C@H]2O)N1 [Example 76],≤ 3.13
23,O[C@@H]1CN(c2c(F)cc(Cl)cc2F)CC[C@@]1(O)COc1ccc(Cl)c2[nH]ccc12 [Example 113],≤ 3.13
